Laboratory results published in US20260337162A1, “TRYPTAMINE COMPOUNDS, COMPOSITIONS, AND METHODS OF USE” (priority 2022, published 2026).
“Also recorded” adds a separate entry of the source. Where two headings read alike, the source gives them in different places.

Key:
[1] = cited from earlier work
[2] = molecular target: T1, 5-HT2A receptor (Homo sapiens, UniProt P28223); assay: 5-HT2A receptor functional screening assay (efficacy relative to maximal 5-HT response); type: cell-based; conditions: for activation at 0.5 µM: 500 nM
T1 construct: expressed in transfected cells
Description: (§1) 5-HT2 receptor-mediated Gq stimulation [phosphoinositide hydrolysis leading to the production of inositol phosphate 1 (IP1)]-canonical signaling pathways-were measured as previously described (Canal, C. E., Cordova-Sintjago, T., Liu, Y., Kim, M. S., Morgan, D., and Booth, R. G., 2013, Molecular pharmacology and ligand docking studies reveal a single amino acid difference between mouse and human serotonin 5-HT2A receptors that impacts behavioral translation of novel 4-phenyl-2-dimethylaminotetralin ligands, J Pharmacol Exp Ther 347, 705-716; Canal, C. E., Morgan, D., Felsing, D., Kondabolu, K., Rowland, N. E., Robertson, K. L., Sakhuja, R., and Booth, R. G., 2014, A Novel Aminotetralin-Type Serotonin (5-HT)(2C) Receptor —Specific Agonist and 5-HT2A Competitive Antagonist/5-HT2B Inverse Agonist with Preclinical Efficacy for Psychoses, J Pharm Exp Ther 349, 533), for example, with a homogeneous time-resolved fluorescence (HTRF) capable microplate reader (e.g., Mithras LB 940, Berthold) using commercially-available kits employing Fluorescence Resonance Energy Transfer (FRET) technology (e.g., IP-One HTRF (Cisbio) kits). Briefly, CHO-K1 or HEK293 cells expressing a single serotonergic 5-HT2 receptor subtype were incubated with test compounds and 5-HT or DOI (positive control) in stimulation buffer containing LiCl. After equilibration, the reaction was terminated with the donor and acceptor fluorescent conjugates in lysis buffer, and FRET was measured with a microplate reader (Berthold Mithras). Data were fit to non-linear curves to calculate potencies (e.g., EC50) and efficacies (e.g., EMAX), relative to positive controls (e.g., serotonin).

[3] = molecular target: T1, 5-HT2A receptor; assay: Dose-response 5-HT2A functional assay (IP1 formation); type: cell-based
Description: (§2) FIG. 27 is a graph showing the dose-response 5-HT2A functional assay results as a percent of control agonist response for compound II-2; tested in duplicate at the indicated concentrations and the EC50 values were determined by non-linear regression analysis of the concentration-response curves generated with mean replicate values using Hill equation curve fitting;
as §2, with “28” for “27”, “compounds III-2 and IV-21;” for “compound II-2;”, “fitting; and” for “fitting;”
as §1
The results from tests of 5-HT2A functional activities of this series of compounds were also unexpected in the context of the unusual results observed from competition binding assays. […] Complete dose-response 5-HT2A and 5HT2B functional assays (measuring IP1 formation) were conducted for III-2 and IV-21 by a second, independent laboratory.

[4] = molecular target: T2, human serotonin 5-HT2A receptor (Homo sapiens, UniProt P28223); assay: Radioligand ([3H]LSD) competition binding, 5-HT2A receptor; conditions: for 5-HT2A receptor affinity (in words) / competition binding curve shape / Ki: [3H]LSD; for competition binding curve shape / competition for [3H]LSD-labeled 5-HT2A receptors: in words; for Ki: one-site fit Ki model; for competition for [3H]LSD-labeled 5-HT2A receptors: up to 10 μM for partial competition
T2 construct: host or cells: HEK293 (ATCC CRL-1573)
Description: Binding affinity (Ki) and functional potency and efficacy (EC50 and EMAX) values of the compounds were measured.
Radioligand competition binding was performed as previously described (Saraf, T. S., Felsing, D. E., Armstrong, J. L., Booth, R. G., and Canal, C. E., 2021, Evaluation of lorcaserin as an anticonvulsant in juvenile Fmr1 knockout mice, Epilepsy Res 175, 106677), with minor modifications, using human cloned 5-HT2A receptors. Plasmids encoding human serotonin 5-HT2A receptor cDNA were procured from the cDNA Resource Center. Human embryonic kidney cells (HEK293, ATCC CRL-1573) were grown in a cell incubator in 100 mm dishes with antibiotic-free Dulbecco's modified Eagle's medium containing 10% fetal bovine serum. Cells were transfected at ~85% confluency with 5-15 μg cDNA using TransIT-2020 reagent (Mirus Bio, Madison, Wisconsin). After approximately 48 hours, cell membrane was collected via centrifugation. For all experiments, serotonin (5-HT) hydrochloride was used as a positive control, and mianserin hydrochloride (10 μM) was used to define non-specific binding. Each cell membrane homogenate expressing 5-HT2A receptors was incubated at room temperature in 96-well plates with [^3H] […] Following equilibration, each sample was filtered rapidly under vacuum through fiberglass filters presoaked in a buffer and washed by vacuum several times with an ice-cold buffer. Filters were soaked with scintillation fluid and counts per minute were detected using photodetectors (Microbeta Scintillation Counter). […] Data shown are the results from all experiments combined. As is known, G protein-coupled receptors, including the 5-HT2A receptor, can exist in multiple conformations, and ligands, typically agonist ligands, have unique affinities for these conformations of the receptor (Kenakin, T. Theoretical Aspects of GPCR-Ligand Complex Pharmacology, Chem. Rev. 2017, 117, 1, 4-20). […] However, for simplicity reasons, affinity of these compounds are reported herein as fitted to the single-site model. The data point for −10 samples is total specific binding (no compound present), and −4 was interpolated to complete the binding curves to 0 specific binding.

[5] = in vivo; type: in vivo, adult, male C57BL/6J mice; conditions: 10 mg/kg PO; for concentration at 10 min / concentration at 0.5 h / concentration at 2 h: mouse, in vivo, po, 10 mg/kg; for concentration at 0.5 h: 30 min; for concentration at 2 h: 120 min
Description: PK profiles were established in adult, male C57BL/6J (Jackson Laboratories). Mice were housed in standard laboratory cages with ad libitum access to food and water, and were acclimated to the vivarium for at least one week prior to testing in a procedure room. In a typical experiment, mice were administered 10 mg/kg of test compound by oral gavage and plasma and brain samples were collected at 10, 30, and 120 min with n-3 for each time point. Quantification of the parent molecule was done using LC-MS/MS method (LLOQ, 0.9 nM).

[6] = tested on: 5-HT2A receptor; assay: Head-twitch response (HTR) and behavioral observation in mice; type: in vivo, adult, male C57BL/6J mice; conditions: 10 mg/kg PO; for HTR (per min): 30 min counting; for elicitation of HTR (in words) / qualitative behavioral changes: mice
Description: The HTR assay was performed in adult, male C57BL/6J mice, procured from the Jackson Laboratory (Bar Harbor, Maine), as previously described (Canal, C. E., and Morgan, D., 2012, Head-twitch response in rodents induced by the hallucinogen 2,5-dimethoxy-4-iodoamphetamine: a comprehensive history, a re-evaluation of mechanisms, and its utility as a model, Drug Test Anal 4, 556-576; Saraf, T. S., Felsing, D. E., Armstrong, J. L., Booth, R. G., and Canal, C. E., 2021, Evaluation of lorcaserin as an anticonvulsant in juvenile Fmr1 knockout mice, Epilepsy Res 175, 106677). Mice were housed in standard laboratory cages with ad libitum access to food and water, and were acclimated to the vivarium for at least one week prior to testing in a procedure room. On the day of testing, mice were acclimated to the procedure room in their home cages for ≥60 min before administration of test compounds. Test articles were administered at 10 mg/kg by oral gavage and mice were placed immediately thereafter in a clear, polycarbonate box (46×20×20 cm), and HTRs were counted for 30 consecutive minutes, using hand-held tally counters, by two trained observers who were blind to treatment.

[7] = brain, read-out: PK data, Brain, 10 min
[8] = brain, read-out: PK data, Brain, 30 min
[9] = brain, read-out: PK data, Brain, 120 min
[10] = plasma, read-out: PK data, Plasma, 10 min
[11] = plasma, read-out: PK data, Plasma, 30 min
[12] = plasma, read-out: PK data, Plasma, 120 min

T1 sequence (P28223 whole entry): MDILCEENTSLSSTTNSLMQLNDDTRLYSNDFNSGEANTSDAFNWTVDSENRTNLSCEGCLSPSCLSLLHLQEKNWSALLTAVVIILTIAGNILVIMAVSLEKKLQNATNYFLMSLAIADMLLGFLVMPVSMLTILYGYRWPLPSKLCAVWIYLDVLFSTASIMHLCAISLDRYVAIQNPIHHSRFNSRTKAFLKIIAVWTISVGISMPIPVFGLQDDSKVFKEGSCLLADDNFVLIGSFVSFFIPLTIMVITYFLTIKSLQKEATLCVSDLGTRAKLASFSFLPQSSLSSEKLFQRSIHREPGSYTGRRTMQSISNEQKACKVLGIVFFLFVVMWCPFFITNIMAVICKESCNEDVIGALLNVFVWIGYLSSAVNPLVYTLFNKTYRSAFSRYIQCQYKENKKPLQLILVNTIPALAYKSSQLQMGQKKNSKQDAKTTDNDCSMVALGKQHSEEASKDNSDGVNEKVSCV
T2 sequence (P28223 whole entry): as above

Compound: COc1ccc2[nH]cc(CCN(C)C)c2c1 [Compound 5-MeO-DMT, 5-methoxy-N,N-dimethyltryptamine]
- duration of action ([1]; in vivo): 5 to 15 min
- oral activity / oral bioavailability ([1]; oral): lacks oral bioavailability

Compound: CN(C)CCc1c[nH]c2ccc(SC(F)(F)F)cc12 [Compound I-3, N,N-dimethyl-2-(5-((trifluoromethyl)thio)-1H-indol-3-yl) ethan-1-amine]
- activation at 0.5 µM [2]: -34.2%
- activation at 50 µM [2]: 43.9%

Compound: CN(C)CCc1c[nH]c2ccccc12 [DMT, N,N-dimethyltryptamine]
- oral activity / oral bioavailability ([1]; in vivo, po): not orally active
- duration of action ([1]; in vivo): 5 to 15 min

Compound: FC(F)CCN(CCc1c[nH]c2ccccc12)CCC(F)F [II-2, N-(2-(1H-indol-3-yl)ethyl)-N-(3,3-difluoropropyl)-3,3-difluoropropan-1-amine]
- EC50 ([3]; IP1 formation): 596 nM
- Emax ([3]; percent of control agonist response): 79%
- activation at 0.5 µM [2]: 1.4%

Compound: FC(F)(F)CCN(CCc1c[nH]c2ccccc12)CCC(F)(F)F [II-3, N-(2-(1H-indol-3-yl)ethyl)-3,3,3-trifluoro-N-(3,3,3-trifluoropropyl) propan-1-amine]
- activation at 0.5 µM [2]: -29.7%
- activation at 50 µM [2]: > 50%

Compound: CN(CCc1c[nH]c2ccccc12)CCC(F)(F)F [II-6, N-(2-(1H-indol-3-yl)ethyl)-3,3,3-trifluoro-N-methylpropan-1-amine]
- 5-HT2A receptor affinity (in words) [4]: high affinities
- competition binding curve shape [4]: multiple slopes
- Ki [4]: 12 nM
- competition for [3H]LSD-labeled 5-HT2A receptors [4]: complete competition
- brain penetration (in words) ([5]; mice): brain-penetrant
- concentration at 10 min [5, 7]: 1550 to 12600 nM
- concentration at 0.5 h [5, 8]: 720 to 4710 nM
- concentration at 2 h [5, 9]: 21 to 1130 nM
- concentration at 10 min [5, 10]: 820 to 7760 nM
- concentration at 0.5 h [5, 11]: 390 to 3140 nM
- concentration at 2 h [5, 12]: 7 to 440 nM
- activation at 0.5 µM [2]: -7.7 ± 11.6%
- activation at 50 µM [2]: -3.1 ± 9.6%
- HTR (per min) [6]: <1 per min
- elicitation of HTR (in words) [6]: did not elicit a HTR
- qualitative behavioral changes [6]: reduced locomotion and “hiccup” responses

Compound: FC(F)(F)CN(CCc1c[nH]c2ccccc12)CC(F)(F)F [II-10, N-(2-(1H-indol-3-yl)ethyl)-2,2,2-trifluoro-N-(2,2,2-trifluoroethyl) ethan-1-amine]
- competition for [3H]LSD-labeled 5-HT2A receptors [4]: only partial competition

Compound: CN(CCc1c[nH]c2ccccc12)CC(F)F [II-12, N-(2-(1H-indol-3-yl)ethyl)-2,2-difluoro-N-methylethan-1-amine]
- activation at 0.5 µM [2]: 19.9%
- activation at 50 µM [2]: 30.3%

Compound: FC1(F)CCN(CCc2c[nH]c3ccccc23)CC1 [II-21, 3-(2-(4,4-difluoropiperidin-1-yl)ethyl)-1H-indole]
- activation at 0.5 µM [2]: 9.2%
- activation at 50 µM [2]: -25.4%

Compound: Oc1cccc2[nH]cc(CCN(CCC(F)(F)F)CCC(F)(F)F)c12 [III-3, 3-(2-(bis(3,3,3-trifluoropropyl)amino)ethyl)-1H-indol-4-ol]
- activation at 0.5 µM [2]: 29.2%
- activation at 50 µM [2]: > 50%

Compound: CN(CCc1c[nH]c2cccc(O)c12)CCC(F)(F)F [III-6, 3-(2-(methyl (3,3,3-trifluoropropyl)amino)ethyl)-1H-indol-4-ol]
- 5-HT2A receptor affinity (in words) [4]: high affinities; also recorded: potent affinity
- competition binding curve shape [4]: multiple slopes
- Ki [4]: 12 nM
- competition for [3H]LSD-labeled 5-HT2A receptors [4]: complete competition
- concentration at 10 min [5, 7]: 200 to 1300 nM
- concentration at 0.5 h [5, 8]: 120 to 420 nM
- concentration at 2 h [5, 9]: 3 to 20 nM
- concentration at 10 min [5, 10]: 170 to 620 nM
- concentration at 0.5 h [5, 11]: 72 to 180 nM
- concentration at 2 h [5, 12]: 2 to 16 nM
- activation at 0.5 µM [2]: 53.5%
- activation at 50 µM [2]: > 50%
- 5-HT2A functional activity (in words) ([2]; in vitro screening, II-15: both 500 nM and 50 μM): agonist activity; also recorded: behaved as an agonist
- HTR (per min) [6]: <1 per min
- elicitation of HTR (in words) [6]: did not elicit a HTR; also recorded: did not elicit the 5-HT2A-dependent HTR
- qualitative behavioral changes [6]: reduced locomotion and “hiccup” responses; also recorded: “hiccup” like responses and caused hypolocomotion

Compound: CN(CCc1c[nH]c2cccc(O)c12)CC(F)F [III-12, 3-(2-((2,2-difluoroethyl)(methyl)amino)ethyl)-1H-indol-4-ol]
- activation at 0.5 µM [2]: 17.8%
- activation at 50 µM [2]: > 50%

Compound: CN(C)CCc1c[nH]c2cccc(OP(=O)(O)O)c12 [Psilocybin, psilocybin]
- MAO-mediated metabolism ([1]; in vivo): undergo MAO-mediated metabolism in vivo

Compound: CN(C)CCc1c[nH]c2cccc(O)c12 [psilocin]
- MAO-mediated metabolism ([1]; in vivo): undergo MAO-mediated metabolism in vivo
